Counter-ions that a name gives are not always drawn.
Tests used:
Sarcocystis neurona = test: Production of persistent parasitemia in a horse challenged with S. neurona (autologous leukocyte model); assay type: in vivo
Method: In a first preferred embodiment a parasite population was isolated from horses as described in an experimental model (Experimental infection of horses with culture derived Sarcocystis neurnoa merozoites as a model for equine protozoal myeloencephalitis, 2004) and used to infect a yearling thoroughbred filly. The challenge (6000 organisms/day) was used daily for 10 days. Concurrent with the challenge infection the filly was administered 1 mg/kg levamisole HCl orally for 21 days. […] Daily blood samples were taken and 5 microliters of blood were used to prepare thin layer smears followed by staining with Geimsa. Ten fields were counted to determine the presence of S. neurona. A hemocytometer was used to determine the number of parasites per ml of peripheral blood. […] At the end of fourteen days the filly was treated with decoquinate orally at 0.5 mg/kg for 10 days.

[1] = horses, 5 mg/kg (2800 mg) orally, at one hour; reportedly; cited from earlier work
S. neurona = settings: 1 mg/kg
Method: Field cases of idiopathic encephalitis associated with EPM due to S. neurona were identified by veterinary clinical examination. […] Signs were assessed by the Field Veterinarian by a neurological examination of gait and scored on a scale of 1-5. Attributable data was obtained from 27 Field Veterinarians. Thirty-three animals were included into the study, missing data from 21 horses prevented inclusion of these 21 animals into the study analysis. In the included data set, one Field Veterinarian submitted data for 6 animals, one Field Veterinarian submitted data from two animals, and 25 veterinarians submitted data for one animal.
Horses were evaluated for a change in gait score by subtracting the gait score after treatment from the gait score before treatment.

[2] = Day 30, levamisole HCl 1 mg/kg orally 21 days, decoquinate 0.5 mg/kg orally 10 days from end of day 14
[3] = Day 14, 1 mg/kg orally for 21 days concurrent with challenge

SMILES | visible parasites in the blood (Sarcocystis neurona; Day 30, decoquinate orally 0.5 mg/kg for 10 days from end of day 14, after levamisole HCl 1 mg/kg for 21 days) | clinical signs of disease (Sarcocystis neurona; [2]) | plasma level [1] [µg/mL] | animals with gait score worse or not changed after treatment (S. neurona; 33 horses) [%] | horses with gait score improved by at least one grade after treatment (S. neurona; 33 horses with signs of EPM not resolved with conventional treatment) [%] | parasitemia (Sarcocystis neurona; Day 10, in the serum, 1 mg/kg orally for 21 days concurrent with challenge) | clinical signs of disease (Sarcocystis neurona; Day 10, yearling filly, challenge 6000 organisms/day for 10 days, 1 mg/kg orally for 21 days) | clinical signs of disease (Sarcocystis neurona; [3]) | parasitemia (Sarcocystis neurona; [3])
CCCCCCCCCCOc1cc2c(O)c(C(=O)OCC)cnc2cc1OCC [decoquinate] | no visible parasites in the blood | no clinical signs of disease |  |  |  |  |  |  | 
c1ccc([C@H]2CN3CCSC3=N2)cc1 [levamisole HCl] |  | no clinical signs of disease | 0.485 | 18 | 82 | one million | no clinical signs | no clinical signs of disease | one million
